# Data: patent publication US20250250282A1, “NOVEL SEVEN-MEMBERED RING-FUSED COMPOUNDS” (PRISM Biolab Co., Ltd., priority 2022, published 2025)
# System: CellSensor T-REx NICD CSL-bla HeLa cell line (Notch response element driving beta-lactamase reporter)
# Assay: Notch assay (CSL-bla beta-lactamase reporter, DOX-inducible NICD)
# Type: cell-based
# Settings: Homo sapiens; 10 μM compound; HeLa/T-REx NICD CSL-bla cells, doxycycline-induced, 16-20 hours incubation; blue/green emission ratio
# Method: We used the CellSensor T-REx™ NICD CSL-bla HeLa cell line, which was engineered by lentiviral transduction of HeLa cells with a Notch response element driving beta-lactamase reporter gene expression (CSL-bla) along with DOX (doxycycline)-inducible NICD (Notch intracellular domain) constructs. Addition of DOX to these cells allows for regulated NICD transcription factor expression and subsequent beta-lactamase expression.
# Specifically, the following protocol was used.
# • 1. Plate Cells: 32 μL/well of HeLa/T-REx™ NICD CSL-bla cells at 10^3 cells/well complete medium into 384-well plate. • 2. Prepare 10× compounds in assay medium. • 3. Add 4 μL compounds or 1% DMSO in assay medium to the cells. • 4. Add 4 μL 10× Doxycycline in Assay Medium to the treated wells, and 4 μL Assay Medium to the Untreated and cell free control wells. • 5. Incubate the assay plate in a humidified 37° C./5% CO2 incubator for 16-20 hours. • 6. Preparation of 6× LiveBLAzer™-FRET B/G Substrate (CCF4-AM) Mixture according to the manual and cell loading should be done in the absence of direct strong lighting. • 7. Remove assay plate from the humidified 37° C./5% CO2 incubator. Add 8 μl of 6× Substrate Mixture from […] to each well. Cover the plate to protect it from light and evaporation. Incubate at room temperature for 4 hours. • 8. Reading an Assay Plate using the following filter selections:
# • 9. Data analysis: Use the assay plate layout to identify the location of the Cell-free wells. These control wells are used for background subtraction. Determine the average emission from the Cell-free wells at both 460 nm (Average Blue Background) and 530 nm (Average Green Background). Subtract the Average Blue Background (data collected at 460 nm) from all of the blue emission data. Subtract the Average Green background (data collected at 530 nm) from all of the green emission data. Calculate the Blue/Green Emission Ratio for each well, by dividing the background-subtracted blue emission values by the background-subtracted green emission values.
row,Structure (SMILES),inhibition at 10 µM [%]
1,"C[C@@H]1CN2C(=O)c3sccc3N(C(=O)NCCC(c3ccccc3)c3ccccc3)C2CN(Cc2ccc3ccccc3c2)C1=O (stereo partly drawn) [ID-29, (8R)—N-(3,3-diphenylpropyl)-8-methyl-6-(naphthalen-2-ylmethyl)-7,11-dioxo-4a,5,6,7,8,9-hexahydrothieno[3′,2′:4,5]pyrimido[1,2-a][1,4]diazepine-4(11H)-carboxamide]",56.7
2,"CC(C)[C@@H]1CN2C(=O)c3sccc3N(C(=O)NCc3ccccc3)C2CN(Cc2ccc3ccccc3c2)C1=O (stereo partly drawn) [ID-20, (8R)—N-benzyl-8-isopropyl-6-(naphthalen-2-ylmethyl)-7,11-dioxo-4a,5,6,7,8,9-hexahydrothieno[3′,2′:4,5]pyrimido[1,2-a][1,4]diazepine-4(11H)-carboxamide]",56.8
3,"O=C1[C@H](Cc2ccccc2)CN2C(=O)CCN(C(=O)NCCC(c3ccccc3)c3ccccc3)C2CN1CCc1ccccc1 (stereo partly drawn) [ID-12, (7R)-7-benzyl-N-(3,3-diphenylpropyl)-4,8-dioxo-9-phenethyloctahydropyrimido[1,2-a][1,4]diazepine-1(2H)-carboxamide]",51.7
4,"CC(C)CCN1CC2N(C[C@@H](Cc3ccc(O)cc3)C1=O)C(=O)c1sccc1N2C(=O)NCc1cccc2ccccc12 (stereo partly drawn) [ID-26, (8R)-8-(4-hydroxybenzyl)-6-isopentyl-N-(naphthalen-1-ylmethyl)-7,11-dioxo-4a,5,6,7,8,9-hexahydrothieno[3′,2′:4,5]pyrimido[1,2-a][1,4]diazepine-4(11H)-carboxamide]",61.1
5,"O=C1[C@H](Cc2ccccc2)CN2C(=O)c3sccc3N(C(=O)NCCc3ccccc3)C2CN1Cc1cccc2cccnc12 (stereo partly drawn) [ID-23, (8R)-8-benzyl-7,11-dioxo-N-phenethyl-6-(quinolin-8-ylmethyl)-4a,5,6,7,8,9-hexahydrothieno[3′,2′:4,5]pyrimido[1,2-a][1,4]diazepine-4(11H)-carboxamide]",54.6
6,"CC(C)CCN1CC2N(C[C@@H](CC(C)C)C1=O)C(=O)c1sccc1N2C(=O)NCc1cccc2ccccc12 (stereo partly drawn) [ID-25, (8R)-8-isobutyl-6-isopentyl-N-(naphthalen-1-ylmethyl)-7,11-dioxo-4a,5,6,7,8,9-hexahydrothieno[3′,2′:4,5]pyrimido[1,2-a][1,4]diazepine-4(11H)-carboxamide]",52.8
7,"CC(C)CCN1CC2N(C[C@@H](Cc3ccccc3)C1=O)C(=O)c1sccc1N2C(=O)NCc1ccc2c(c1)OCO2 (stereo partly drawn) [ID-34, (8R)—N-(benzo[d][1,3]dioxol-5-ylmethyl)-8-benzyl-6-isopentyl-7,11-dioxo-4a,5,6,7,8,9-hexahydrothieno[3′,2′:4,5]pyrimido[1,2-a][1,4]diazepine-4(11H)-carboxamide]",52.4
